Experimental data: PubChem BioAssay (NCI)
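Where inhibition never reached the appropriate level, the endpoint shown equals the highest concentration tested. Otherwise, values were interpolated linearly from a five-concentration, 48-hour dose response in 96-well plates. The concentration for 50% growth inhibition is given as GI50. At the TGI there is no net growth.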

Columns and labels:
Assay in all cases: inhibition of tumour cell growth, NCI panel, 48 h; in the data active = GI50 below about 0.43 µM; inactive = the rest
[1] = system: 786-0 renal
[2] = system: A498 renal
[3] = system: A549 NSCLC
[4] = system: ACHN renal
[5] = system: CAKI-1 renal
[6] = system: CCRF-CEM leukemia
[7] = system: COLO 205 colon
[8] = system: DLD-1 colon
[9] = system: EKVX NSCLC
[10] = system: HCC-2998 colon
[11] = system: HCT-116 colon
[12] = system: HCT-15 colon
[13] = system: HL-60(TB) leukemia
[14] = system: HOP-62 NSCLC
[15] = system: HOP-92 NSCLC
[16] = system: HT29 colon
[17] = system: IGROV1 ovarian
[18] = system: K-562 leukemia
[19] = system: KM12 colon
[20] = system: KM20L2 colon
[21] = system: LOX IMVI melanoma
[22] = system: LXFL 529 NSCLC
[23] = system: M14 melanoma
[24] = system: M19-MEL melanoma
[25] = system: MALME-3M melanoma
[26] = system: MOLT-4 leukemia
[27] = system: NCI-H226 lung
[28] = system: NCI-H23 lung
[29] = system: NCI-H460 lung
[30] = system: NCI-H522 lung
[31] = system: OVCAR-3 ovarian
[32] = system: OVCAR-4 ovarian
[33] = system: OVCAR-5 ovarian
[34] = system: OVCAR-8 ovarian
[35] = system: RPMI-8226 leukemia
[36] = system: RXF 393 renal
[37] = system: SF-268 CNS
[38] = system: SF-295 CNS
[39] = system: SF-539 CNS
[40] = system: SK-MEL-2 melanoma
[41] = system: SK-MEL-28 melanoma
[42] = system: SK-MEL-5 melanoma
[43] = system: SK-OV-3 ovarian
[44] = system: SN12C renal
[45] = system: SNB-19 CNS
[46] = system: SW-620 colon
[47] = system: TK-10 renal
[48] = system: U251 CNS
[49] = system: UACC-257 melanoma
[50] = system: UACC-62 melanoma
[51] = system: UO-31 renal

CC(=O)[CH-]C(=O)c1ccccc1.CC(=O)[CH-]C(=O)c1ccccc1.CCN(CC)CC[O-].CCN(CC)CC[O-].Cl.[Hf+4]
> 100 µM: TGI [1] | TGI [2] | TGI [3] | TGI [4] | TGI [5] | TGI [6] | TGI [7] | TGI [8] | TGI [9] | TGI [10] | TGI [11] | TGI [12] | TGI [13] | TGI [14] | TGI [15] | TGI [16] | TGI [17] | TGI [18] | TGI [19] | TGI [20] | TGI [21] | TGI [22] | TGI [23] | TGI [24] | TGI [25] | TGI [26] | TGI [27] | TGI [28] | TGI [29] | TGI [30] | TGI [31] | TGI [32] | TGI [33] | TGI [34] | TGI [35] | TGI [36] | TGI [37] | TGI [38] | TGI [39] | TGI [40] | TGI [41] | TGI [42] | TGI [43] | TGI [44] | TGI [45] | TGI [46] | TGI [47] | TGI [48] | TGI [49] | TGI [50] | TGI [51]
inactive: GI50 [1] 88.8 µM | GI50 [2] 32.2 µM | GI50 [3] > 100 µM | GI50 [4] 44.6 µM | GI50 [5] > 100 µM | GI50 [6] 81.6 µM | GI50 [7] > 100 µM | GI50 [8] > 100 µM | GI50 [9] 93.8 µM | GI50 [10] > 100 µM | GI50 [11] > 100 µM | GI50 [12] > 100 µM | GI50 [13] > 100 µM | GI50 [14] > 100 µM | GI50 [15] 58.9 µM | GI50 [16] > 100 µM | GI50 [17] > 100 µM | GI50 [18] > 100 µM | GI50 [19] > 100 µM | GI50 [20] > 100 µM | GI50 [21] 72.9 µM | GI50 [22] > 100 µM | GI50 [23] 92 µM | GI50 [24] > 100 µM | GI50 [25] > 100 µM | GI50 [26] 65 µM | GI50 [27] 66.1 µM | GI50 [28] 19.7 µM | GI50 [29] 36.4 µM | GI50 [30] 52.5 µM | GI50 [31] > 100 µM | GI50 [32] > 100 µM | GI50 [33] > 100 µM | GI50 [34] > 100 µM | GI50 [35] > 100 µM | GI50 [36] 29.7 µM | GI50 [37] > 100 µM | GI50 [38] 73.2 µM | GI50 [39] > 100 µM | GI50 [40] > 100 µM | GI50 [41] > 100 µM | GI50 [42] > 100 µM | GI50 [43] > 100 µM | GI50 [44] > 100 µM | GI50 [45] > 100 µM | GI50 [46] > 100 µM | GI50 [47] > 100 µM | GI50 [48] > 100 µM | GI50 [49] > 100 µM | GI50 [50] > 100 µM | GI50 [51] > 100 µM
